One experiment deals with T1, MLLT3 (Mus musculus, UniProt A2AM29).
T1 construct: host or cells: NIH/3T3
T1 sequence (A2AM29 1-569): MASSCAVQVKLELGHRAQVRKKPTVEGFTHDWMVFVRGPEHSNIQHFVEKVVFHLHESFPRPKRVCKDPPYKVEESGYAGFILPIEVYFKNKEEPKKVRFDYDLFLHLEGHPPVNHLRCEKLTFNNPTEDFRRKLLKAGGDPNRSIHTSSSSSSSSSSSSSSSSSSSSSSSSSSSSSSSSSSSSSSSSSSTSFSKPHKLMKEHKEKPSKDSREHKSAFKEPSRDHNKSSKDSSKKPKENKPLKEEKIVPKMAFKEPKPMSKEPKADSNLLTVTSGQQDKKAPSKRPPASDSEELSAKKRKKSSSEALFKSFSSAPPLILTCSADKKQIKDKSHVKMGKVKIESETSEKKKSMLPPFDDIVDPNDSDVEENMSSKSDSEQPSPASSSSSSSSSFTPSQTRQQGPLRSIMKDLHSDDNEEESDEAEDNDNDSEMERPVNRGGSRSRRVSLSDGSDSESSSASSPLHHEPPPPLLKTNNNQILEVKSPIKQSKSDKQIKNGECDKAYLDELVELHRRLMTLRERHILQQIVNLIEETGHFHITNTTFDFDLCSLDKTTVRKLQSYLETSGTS
Put plainly: MLLT3 degradation assay in NIH/3T3 cells (JESS), dose response, 5 h. In kind it is cell-based. The procedure:
MLLT3 degradation efficacy of compounds was tested in an automated chemiluminescent detection system (JESS, Cat #004-650). NIH/3T3 (#CRL-1658, ATCC) were seeded at a density of 0.5 million cells/well in a cell culture treated 6-well cell culture plate in 2 mL of complete medium (DMEM+10% FBS+IX Penicillin-Streptomycin) and incubated at 37° C., 5% CO2. The next day, 10 mM DMSO stocks were prepared, and cells were treated with eight concentrations of test compounds, starting from 100 nM, 5-fold dilution, at a final DMSO concentration of 0.1% and incubated for 5 h at 37° C., 5% CO2. Post incubation, cells were washed with HBSS and lysed in 70 μL of RIPA buffer supplemented with Protease inhibitors (sc-24948; Santa Cruz). Later, protein estimation was done using BCA protein assay kit (23228; Pierce). 4 μg protein lysate (4 μL of 1 μg/μL lysate) was loaded into each well of the JESS cartridge (SM-W004; Bio-techne) and the JESS run was performed using 1:200 dilution of anti-mouse MLLT3 antibody (#47577; CST) and 1:800 dilution of anti-human GAPDH antibody (2118; Cell signaling technology) with anti-rabbit secondary detection module (DM-001; Bio-Techne). Post run, data was analysed using “Compass for SW” software for chemiluminescent detection. Peak fit was done using “dropped lines” method. […]

The next experiment deals with T2, MLLT1 (Mus musculus, UniProt F6UGX7).
T2 construct: host or cells: NIH/3T3
T2 sequence (F6UGX7 1-547): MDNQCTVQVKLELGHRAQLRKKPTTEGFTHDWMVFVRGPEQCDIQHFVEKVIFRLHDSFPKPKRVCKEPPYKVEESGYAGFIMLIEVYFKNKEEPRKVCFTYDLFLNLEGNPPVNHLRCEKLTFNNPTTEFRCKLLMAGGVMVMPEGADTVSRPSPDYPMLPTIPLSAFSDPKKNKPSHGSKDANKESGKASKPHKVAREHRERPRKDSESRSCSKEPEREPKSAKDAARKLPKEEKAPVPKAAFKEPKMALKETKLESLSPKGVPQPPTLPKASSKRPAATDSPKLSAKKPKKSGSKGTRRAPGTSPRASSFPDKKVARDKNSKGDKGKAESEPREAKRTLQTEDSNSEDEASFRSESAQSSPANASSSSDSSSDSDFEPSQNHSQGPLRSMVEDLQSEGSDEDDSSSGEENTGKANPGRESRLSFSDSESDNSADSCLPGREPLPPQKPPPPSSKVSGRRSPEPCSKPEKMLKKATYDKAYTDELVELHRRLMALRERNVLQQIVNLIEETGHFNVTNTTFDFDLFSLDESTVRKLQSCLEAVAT
Briefly: MLLT1 degradation assay in NIH/3T3 cells (JESS), dose response, 5 h. The format is cell-based. The procedure:
MLLT1 degradation efficacy of compounds was tested in an automated chemiluminescent detection system (JESS, Cat #004-650). NIH/3T3 (#CRL-1658, ATCC) were seeded at a density of 0.5 million cells/well in a cell culture treated 6-well cell culture plate in 2 mL of complete medium (DMEM+10% FBS+1X Penicillin-Streptomycin) and incubated at 37° C., 5% CO2. The next day, 10 mM DMSO stocks were prepared, and cells were treated with eight concentrations of test compound, starting from 100 nM, 5-fold dilution, at a final DMSO concentration of 0.1% and incubated for 5 h at 37° C., 5% CO2. Post incubation, cells were washed with HBSS and lysed in 70 μL of RIPA buffer supplemented with Protease inhibitors (sc-24948; Santa Cruz). Protein estimation was done using BCA protein assay kit (23228; Pierce). […] Post run, data was analysed using “Compass for SW” software for chemiluminescent detection. […]
MLLT3 degradation efficacy of compounds was tested in an automated chemiluminescent detection system (JESS, Cat #004-650). […] Post run, data was analysed using “Compass for SW” software for chemiluminescent detection. […]

The structures appear in SMILES notation.

In the case of `CN1CCC[C@@H]1c1cc2cnc(NC(=O)c3ccc(CCCC#Cc4cccc5c4CN(C4CCC(=O)NC4=O)C5=O)cc3)cc2[nH]1` (stereo partly drawn) [Example 55, 4-(5-(2-(2,6-dioxopiperidin-3-yl)-1-oxoisoindolin-4-yl)pent-4-yn-1-yl)-N-(2-((R)-1-methylpyrrolidin-2-yl)-1H-pyrrolo[3,2-c]pyridin-6-yl)benzamide], the DC50 was found to be 0.8 nM at MLLT3 and 1.2 nM on MLLT1 (NIH/3T3 cells, 5 h). Also, the Dmax at MLLT3 (NIH3T3, maximum % degradation observed) amounted to 92%; on MLLT1 (NIH3T3, read-out: MLLT1 Dmax in NIH/3T3 cells), 96%.

For the origin of these results see patent publication US20260191968A1, “PROTAC DEGRADERS OF MLLT1 AND/OR MLLT3” (DARK BLUE THERAPEUTICS LTD, priority 2024, published 2026).
